From PubChem BioAssay (NCI)
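Five compound concentrations were applied to cells in 96-well plates for 48 hours; endpoints were derived by simple linear interpolation of the resulting dose-response curve. TGI is the concentration that stops growth completely.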

Experiments:
Assay in all cases: DTP human tumour cell line panel, 48 h
786-0 renal = test system: 786-0 renal
A498 renal = test system: A498 renal
A549 NSCLC = test system: A549 NSCLC
BT-549 breast = test system: BT-549 breast
CAKI-1 renal = test system: CAKI-1 renal
CCRF-CEM leukemia = test system: CCRF-CEM leukemia
COLO 205 colon = test system: COLO 205 colon
DU-145 prostate = test system: DU-145 prostate
EKVX NSCLC = test system: EKVX NSCLC
HCT-116 colon = test system: HCT-116 colon
HCT-15 colon = test system: HCT-15 colon
HL-60(TB) leukemia = test system: HL-60(TB) leukemia
HOP-62 NSCLC = test system: HOP-62 NSCLC
HS 578T breast = test system: HS 578T breast
HT29 colon = test system: HT29 colon
IGROV1 ovarian = test system: IGROV1 ovarian
K-562 leukemia = test system: K-562 leukemia
KM12 colon = test system: KM12 colon
LOX IMVI melanoma = test system: LOX IMVI melanoma
M14 melanoma = test system: M14 melanoma
MALME-3M melanoma = test system: MALME-3M melanoma
MCF7 breast = test system: MCF7 breast
MDA-MB-435 = test system: MDA-MB-435
MDA-N = test system: MDA-N
MOLT-4 leukemia = test system: MOLT-4 leukemia
NCI-H226 lung = test system: NCI-H226 lung
NCI-H460 lung = test system: NCI-H460 lung
NCI/ADR-RES ovarian = test system: NCI/ADR-RES ovarian
OVCAR-3 ovarian = test system: OVCAR-3 ovarian
OVCAR-4 ovarian = test system: OVCAR-4 ovarian
OVCAR-5 ovarian = test system: OVCAR-5 ovarian
OVCAR-8 ovarian = test system: OVCAR-8 ovarian
PC-3 prostate = test system: PC-3 prostate
RPMI-8226 leukemia = test system: RPMI-8226 leukemia
RXF 393 renal = test system: RXF 393 renal
SF-268 CNS = test system: SF-268 CNS
SF-295 CNS = test system: SF-295 CNS
SF-539 CNS = test system: SF-539 CNS
SK-MEL-2 melanoma = test system: SK-MEL-2 melanoma
SK-MEL-28 melanoma = test system: SK-MEL-28 melanoma
SK-MEL-5 melanoma = test system: SK-MEL-5 melanoma
SK-OV-3 ovarian = test system: SK-OV-3 ovarian
SN12C renal = test system: SN12C renal
SNB-19 CNS = test system: SNB-19 CNS
SNB-75 CNS = test system: SNB-75 CNS
SR leukemia = test system: SR leukemia
SW-620 colon = test system: SW-620 colon
T-47D breast = test system: T-47D breast
TK-10 renal = test system: TK-10 renal
U251 CNS = test system: U251 CNS
UACC-257 melanoma = test system: UACC-257 melanoma
UACC-62 melanoma = test system: UACC-62 melanoma
UO-31 renal = test system: UO-31 renal
ACHN renal = test system: ACHN renal
HCC-2998 colon = test system: HCC-2998 colon
HOP-92 NSCLC = test system: HOP-92 NSCLC
MDA-MB-231 breast = test system: MDA-MB-231 breast
NCI-H23 lung = test system: NCI-H23 lung
NCI-H522 lung = test system: NCI-H522 lung

## Cc1cccc(NC(=S)Nc2ccccc2Cl)n1
786-0 renal
  TGI: > 100 µM
A498 renal
  TGI: 64.6 µM
A549 NSCLC
  TGI: > 100 µM
BT-549 breast
  TGI: > 100 µM
CAKI-1 renal
  TGI: 96.4 µM
CCRF-CEM leukemia
  TGI: > 100 µM
COLO 205 colon
  TGI: > 100 µM
DU-145 prostate
  TGI: > 100 µM
EKVX NSCLC
  TGI: 67.8 µM
HCT-116 colon
  TGI: > 100 µM
HCT-15 colon
  TGI: > 100 µM
HL-60(TB) leukemia
  TGI: > 100 µM
HOP-62 NSCLC
  TGI: 46.2 µM
HS 578T breast
  TGI: > 100 µM
HT29 colon
  TGI: > 100 µM
IGROV1 ovarian
  TGI: > 100 µM
K-562 leukemia
  TGI: > 100 µM
KM12 colon
  TGI: 79.4 µM
LOX IMVI melanoma
  TGI: > 100 µM
M14 melanoma
  TGI: > 100 µM
MALME-3M melanoma
  TGI: 88.3 µM
MCF7 breast
  TGI: > 100 µM
MDA-MB-435
  TGI: > 100 µM
MDA-N
  TGI: > 100 µM
MOLT-4 leukemia
  TGI: > 100 µM
NCI-H226 lung
  TGI: > 100 µM
NCI-H460 lung
  TGI: > 100 µM
NCI/ADR-RES ovarian
  TGI: > 100 µM
OVCAR-3 ovarian
  TGI: > 100 µM
OVCAR-4 ovarian
  TGI: 57.8 µM
OVCAR-5 ovarian
  TGI: > 100 µM
OVCAR-8 ovarian
  TGI: 73.7 µM
PC-3 prostate
  TGI: > 100 µM
RPMI-8226 leukemia
  TGI: > 100 µM
RXF 393 renal
  TGI: 60 µM
SF-268 CNS
  TGI: 62 µM
SF-295 CNS
  TGI: > 100 µM
SF-539 CNS
  TGI: > 100 µM
SK-MEL-2 melanoma
  TGI: > 100 µM
SK-MEL-28 melanoma
  TGI: > 100 µM
SK-MEL-5 melanoma
  TGI: > 100 µM
SK-OV-3 ovarian
  TGI: 51.8 µM
SN12C renal
  TGI: > 100 µM
SNB-19 CNS
  TGI: 97.5 µM
SNB-75 CNS
  TGI: 52.7 µM
SR leukemia
  TGI: > 100 µM
SW-620 colon
  TGI: > 100 µM
T-47D breast
  TGI: > 100 µM
TK-10 renal
  TGI: > 100 µM
U251 CNS
  TGI: > 100 µM
UACC-257 melanoma
  TGI: 74.2 µM
UACC-62 melanoma
  TGI: > 100 µM
UO-31 renal
  TGI: > 100 µM

## NCc1ccc(C(=O)O)cc1
786-0 renal
  TGI: > 100 µM
A498 renal
  TGI: > 100 µM
A549 NSCLC
  TGI: > 100 µM
ACHN renal
  TGI: > 100 µM
BT-549 breast
  TGI: > 100 µM
CAKI-1 renal
  TGI: > 100 µM
DU-145 prostate
  TGI: > 100 µM
EKVX NSCLC
  TGI: > 100 µM
HCC-2998 colon
  TGI: > 100 µM
HCT-116 colon
  TGI: > 100 µM
HCT-15 colon
  TGI: > 100 µM
HL-60(TB) leukemia
  TGI: > 100 µM
HOP-62 NSCLC
  TGI: > 100 µM
HOP-92 NSCLC
  TGI: > 100 µM
HT29 colon
  TGI: > 100 µM
IGROV1 ovarian
  TGI: > 100 µM
K-562 leukemia
  TGI: > 100 µM
KM12 colon
  TGI: > 100 µM
LOX IMVI melanoma
  TGI: > 100 µM
M14 melanoma
  TGI: > 100 µM
MALME-3M melanoma
  TGI: > 100 µM
MDA-MB-231 breast
  TGI: > 100 µM
MDA-MB-435
  TGI: > 100 µM
MDA-N
  TGI: > 100 µM
MOLT-4 leukemia
  TGI: > 100 µM
NCI-H226 lung
  TGI: > 100 µM
NCI-H23 lung
  TGI: > 100 µM
NCI-H460 lung
  TGI: > 100 µM
NCI-H522 lung
  TGI: > 100 µM
NCI/ADR-RES ovarian
  TGI: > 100 µM
OVCAR-3 ovarian
  TGI: > 100 µM
OVCAR-4 ovarian
  TGI: > 100 µM
OVCAR-5 ovarian
  TGI: > 100 µM
OVCAR-8 ovarian
  TGI: > 100 µM
PC-3 prostate
  TGI: > 100 µM
RXF 393 renal
  TGI: > 100 µM
SF-268 CNS
  TGI: > 100 µM
SF-295 CNS
  TGI: > 100 µM
SK-MEL-28 melanoma
  TGI: > 100 µM
SK-MEL-5 melanoma
  TGI: > 100 µM
SN12C renal
  TGI: > 100 µM
SNB-19 CNS
  TGI: > 100 µM
SR leukemia
  TGI: > 100 µM
SW-620 colon
  TGI: > 100 µM
T-47D breast
  TGI: > 100 µM
TK-10 renal
  TGI: > 100 µM
U251 CNS
  TGI: > 100 µM
UACC-257 melanoma
  TGI: > 100 µM
UACC-62 melanoma
  TGI: > 100 µM
UO-31 renal
  TGI: > 100 µM

## Cn1c(-c2cccs2)cc(-c2cccs2)c1-c1ccsc1
786-0 renal
  TGI: > 100 µM
A498 renal
  TGI: > 100 µM
A549 NSCLC
  TGI: > 100 µM
ACHN renal
  TGI: > 100 µM
BT-549 breast
  TGI: > 100 µM
CAKI-1 renal
  TGI: > 100 µM
CCRF-CEM leukemia
  TGI: > 100 µM
COLO 205 colon
  TGI: > 100 µM
DU-145 prostate
  TGI: > 100 µM
EKVX NSCLC
  TGI: > 100 µM
HCC-2998 colon
  TGI: > 100 µM
HCT-116 colon
  TGI: > 100 µM
HCT-15 colon
  TGI: > 100 µM
HL-60(TB) leukemia
  TGI: > 100 µM
HOP-62 NSCLC
  TGI: > 100 µM
HOP-92 NSCLC
  TGI: > 100 µM
HS 578T breast
  TGI: > 100 µM
HT29 colon
  TGI: > 100 µM
K-562 leukemia
  TGI: > 100 µM
KM12 colon
  TGI: > 100 µM
LOX IMVI melanoma
  TGI: > 100 µM
M14 melanoma
  TGI: > 100 µM
MCF7 breast
  TGI: > 100 µM
MDA-MB-231 breast
  TGI: > 100 µM
MDA-MB-435
  TGI: > 100 µM
MDA-N
  TGI: > 100 µM
MOLT-4 leukemia
  TGI: > 100 µM
NCI-H226 lung
  TGI: > 100 µM
NCI-H23 lung
  TGI: > 100 µM
NCI-H460 lung
  TGI: > 100 µM
NCI/ADR-RES ovarian
  TGI: > 100 µM
OVCAR-3 ovarian
  TGI: 75.2 µM
OVCAR-4 ovarian
  TGI: > 100 µM
OVCAR-5 ovarian
  TGI: > 100 µM
OVCAR-8 ovarian
  TGI: > 100 µM
PC-3 prostate
  TGI: > 100 µM
RPMI-8226 leukemia
  TGI: > 100 µM
RXF 393 renal
  TGI: > 100 µM
SF-268 CNS
  TGI: > 100 µM
SF-295 CNS
  TGI: > 100 µM
SF-539 CNS
  TGI: > 100 µM
SK-MEL-2 melanoma
  TGI: 98.1 µM
SK-MEL-28 melanoma
  TGI: > 100 µM
SK-MEL-5 melanoma
  TGI: > 100 µM
SK-OV-3 ovarian
  TGI: > 100 µM
SN12C renal
  TGI: > 100 µM
SNB-19 CNS
  TGI: > 100 µM
SNB-75 CNS
  TGI: > 100 µM
SR leukemia
  TGI: > 100 µM
SW-620 colon
  TGI: > 100 µM
T-47D breast
  TGI: > 100 µM
TK-10 renal
  TGI: > 100 µM
U251 CNS
  TGI: > 100 µM
UACC-257 melanoma
  TGI: > 100 µM
UACC-62 melanoma
  TGI: > 100 µM
UO-31 renal
  TGI: > 100 µM

## CC(C)CCn1c(=O)c2c(=O)[nH][nH]c2c2ccccc21
786-0 renal
  TGI: > 100 µM
A498 renal
  TGI: > 100 µM
A549 NSCLC
  TGI: > 100 µM
ACHN renal
  TGI: > 100 µM
BT-549 breast
  TGI: > 100 µM
CCRF-CEM leukemia
  TGI: > 100 µM
COLO 205 colon
  TGI: > 100 µM
DU-145 prostate
  TGI: > 100 µM
EKVX NSCLC
  TGI: > 100 µM
HCC-2998 colon
  TGI: > 100 µM
HCT-116 colon
  TGI: > 100 µM
HCT-15 colon
  TGI: > 100 µM
HL-60(TB) leukemia
  TGI: > 100 µM
HOP-62 NSCLC
  TGI: > 100 µM
HOP-92 NSCLC
  TGI: > 100 µM
HS 578T breast
  TGI: > 100 µM
HT29 colon
  TGI: > 100 µM
IGROV1 ovarian
  TGI: > 100 µM
K-562 leukemia
  TGI: > 100 µM
KM12 colon
  TGI: > 100 µM
LOX IMVI melanoma
  TGI: > 100 µM
MALME-3M melanoma
  TGI: > 100 µM
MCF7 breast
  TGI: > 100 µM
MDA-MB-231 breast
  TGI: > 100 µM
MDA-MB-435
  TGI: > 100 µM
MDA-N
  TGI: > 100 µM
NCI-H226 lung
  TGI: > 100 µM
NCI-H23 lung
  TGI: > 100 µM
NCI-H460 lung
  TGI: > 100 µM
NCI-H522 lung
  TGI: > 100 µM
NCI/ADR-RES ovarian
  TGI: > 100 µM
OVCAR-3 ovarian
  TGI: > 100 µM
OVCAR-4 ovarian
  TGI: > 100 µM
OVCAR-5 ovarian
  TGI: > 100 µM
OVCAR-8 ovarian
  TGI: > 100 µM
PC-3 prostate
  TGI: > 100 µM
RPMI-8226 leukemia
  TGI: > 100 µM
SF-295 CNS
  TGI: > 100 µM
SF-539 CNS
  TGI: > 100 µM
SK-MEL-28 melanoma
  TGI: > 100 µM
SK-MEL-5 melanoma
  TGI: > 100 µM
SN12C renal
  TGI: > 100 µM
SNB-19 CNS
  TGI: > 100 µM
SR leukemia
  TGI: > 100 µM
SW-620 colon
  TGI: > 100 µM
TK-10 renal
  TGI: > 100 µM
U251 CNS
  TGI: > 100 µM
UACC-257 melanoma
  TGI: > 100 µM
UO-31 renal
  TGI: > 100 µM
